Assays:
Details in all cases: compound at 10 μM
Adrenergic α2C Receptor = target: T1, Adrenergic α2C Receptor (Homo sapiens, UniProt P18825); experiment: Radioligand binding, [3H] MK-912
T1 construct: expressed in transfected cells; host or cells: insect Sf9 cells
T1 sequence (P18825 1-462): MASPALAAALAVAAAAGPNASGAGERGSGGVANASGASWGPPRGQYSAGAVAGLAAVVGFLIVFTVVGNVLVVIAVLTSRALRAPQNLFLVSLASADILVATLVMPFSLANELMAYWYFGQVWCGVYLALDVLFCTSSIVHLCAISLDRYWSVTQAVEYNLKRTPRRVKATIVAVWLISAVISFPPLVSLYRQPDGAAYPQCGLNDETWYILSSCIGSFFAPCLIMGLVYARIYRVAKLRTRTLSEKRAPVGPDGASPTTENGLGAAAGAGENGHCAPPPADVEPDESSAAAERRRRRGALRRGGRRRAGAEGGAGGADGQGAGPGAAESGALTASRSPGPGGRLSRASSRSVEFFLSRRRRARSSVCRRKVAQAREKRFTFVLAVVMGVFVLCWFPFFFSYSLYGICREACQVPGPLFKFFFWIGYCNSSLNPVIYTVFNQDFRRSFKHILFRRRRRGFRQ
Procedure: (§1) Compounds of the invention were subjected to specific binding assays to test their ability to bind to the receptors and transporter proteins described below.
(c) Adrenergic α2C Receptor:
(§2) • Reference: S. Uhlçn et al. J. Pharmacol. Exp. Ther., 271:1558-1565 (1994) • Source: Human recombinant insect Sf9 cells • Ligand: 1 nM [^3H]

Dopamine D1 Receptor = target: T2, Dopamine D1 Receptor (Homo sapiens, UniProt P21728); experiment: Radioligand binding, [3H] SCH-23390
T2 construct: expressed in transfected cells; host or cells: CHO cells
T2 sequence (P21728 whole entry): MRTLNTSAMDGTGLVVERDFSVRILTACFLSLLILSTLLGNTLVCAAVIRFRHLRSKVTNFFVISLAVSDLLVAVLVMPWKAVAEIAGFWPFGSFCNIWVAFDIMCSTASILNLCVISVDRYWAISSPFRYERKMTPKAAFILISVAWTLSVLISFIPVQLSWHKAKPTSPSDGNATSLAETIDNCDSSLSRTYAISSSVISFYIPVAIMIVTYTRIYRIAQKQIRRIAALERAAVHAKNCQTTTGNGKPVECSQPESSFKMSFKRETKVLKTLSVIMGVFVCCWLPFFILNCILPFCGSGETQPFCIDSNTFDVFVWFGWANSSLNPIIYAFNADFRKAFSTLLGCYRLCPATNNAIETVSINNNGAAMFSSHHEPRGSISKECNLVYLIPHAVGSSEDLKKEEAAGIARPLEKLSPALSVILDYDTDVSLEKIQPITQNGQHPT
Procedure: as §1
(d) Dopamine D1 Receptor:
• Reference: Dearry et al., Nature, 347:72-76, (1990) • Source: Human recombinant CHO cells • Ligand: 1.4 nM [3H] SCH-23390 • Vehicle: 1% DMSO • Incubation time/Temp: 2 hours @ 37° C. • Incubation buffer: 50 mM Tris-HCl, pH 7.4, 150 mM NaCl, 1.4 mM ascorbic acid, 0.001% BSA • Non Specific ligand: 10 μM (+)-butaclamol • Kd: 1.4 nM • Bmax: 0.63 pmole/mg protein • Specific binding: 90% • Quantitation method: Radioligand binding • Significance criteria: ≧50% of maximum stimulation or inhibition

Dopamine D4.4 Receptor = target: T3, Dopamine D4.4 Receptor (Homo sapiens, UniProt P21917); experiment: Radioligand binding, [3H] Spiperone
T3 construct: expressed in transfected cells; host or cells: CHO-K1 cells
T3 sequence (P21917 1-419): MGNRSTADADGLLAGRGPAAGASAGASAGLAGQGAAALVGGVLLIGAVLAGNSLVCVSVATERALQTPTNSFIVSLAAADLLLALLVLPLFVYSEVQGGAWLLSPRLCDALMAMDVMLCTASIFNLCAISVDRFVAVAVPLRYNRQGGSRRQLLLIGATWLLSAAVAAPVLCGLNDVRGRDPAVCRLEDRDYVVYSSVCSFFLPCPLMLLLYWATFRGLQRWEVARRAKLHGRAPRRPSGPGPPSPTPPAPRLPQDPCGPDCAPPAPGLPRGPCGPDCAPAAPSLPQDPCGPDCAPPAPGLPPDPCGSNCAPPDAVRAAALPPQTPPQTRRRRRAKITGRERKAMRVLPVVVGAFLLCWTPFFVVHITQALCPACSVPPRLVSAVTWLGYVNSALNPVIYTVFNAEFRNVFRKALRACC
Procedure: as §1
(i) Dopamine D4.4 Receptor:
• Reference: Van Tol et al., Nature, 350:610-614 (1991) • Source: Human recombinant CHO-K1 cells • Ligand: 1.2 nM [^3H]

Dopamine D3 Receptor = target: T4, Dopamine D3 Receptor (Homo sapiens, UniProt P35462); experiment: Radioligand binding, [3H] Spiperone
T4 construct: expressed in transfected cells; host or cells: CHO cells
T4 sequence (P35462 whole entry): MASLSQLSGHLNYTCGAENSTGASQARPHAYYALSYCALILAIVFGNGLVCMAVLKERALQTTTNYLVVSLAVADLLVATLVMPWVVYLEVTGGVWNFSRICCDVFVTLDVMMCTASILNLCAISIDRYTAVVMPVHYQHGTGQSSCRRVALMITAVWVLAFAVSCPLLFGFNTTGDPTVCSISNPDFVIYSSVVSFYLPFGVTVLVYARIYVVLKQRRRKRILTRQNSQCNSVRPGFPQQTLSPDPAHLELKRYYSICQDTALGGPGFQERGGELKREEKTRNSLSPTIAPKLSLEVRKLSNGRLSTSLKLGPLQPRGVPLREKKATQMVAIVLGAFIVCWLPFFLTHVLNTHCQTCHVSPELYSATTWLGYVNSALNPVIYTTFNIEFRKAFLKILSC
Procedure: as §1
(g) Dopamine D3 Receptor:
• Reference: Sokoloff et al., Nature, 347:146-151, (1990) • Source: Human recombinant CHO cells • Ligand: 0.7 nM [3H]

Dopamine D2L Receptor = target: T5, Dopamine D2L Receptor (Homo sapiens, UniProt P14416); experiment: Radioligand binding, [3H] Spiperone
T5 construct: expressed in transfected cells; host or cells: CHO cells
T5 sequence (P14416 whole entry): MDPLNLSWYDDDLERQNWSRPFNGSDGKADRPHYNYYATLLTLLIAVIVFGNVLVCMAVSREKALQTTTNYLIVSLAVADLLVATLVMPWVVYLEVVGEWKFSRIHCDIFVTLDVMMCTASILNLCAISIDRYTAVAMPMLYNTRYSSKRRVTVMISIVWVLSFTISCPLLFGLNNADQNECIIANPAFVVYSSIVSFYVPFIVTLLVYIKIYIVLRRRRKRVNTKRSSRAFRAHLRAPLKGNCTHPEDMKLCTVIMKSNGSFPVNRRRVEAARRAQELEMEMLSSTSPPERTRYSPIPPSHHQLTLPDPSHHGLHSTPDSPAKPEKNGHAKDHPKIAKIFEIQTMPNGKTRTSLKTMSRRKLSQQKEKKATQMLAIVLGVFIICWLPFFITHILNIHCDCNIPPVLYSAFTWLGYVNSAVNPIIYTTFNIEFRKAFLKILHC
Procedure: as §1
(e) Dopamine D2L Receptor:
• Reference: Grandy et al., Proc. Natl. Acad. Sci. USA, 86:9762-9766 (1989) • Source: Human recombinant CHO cells • Ligand: 0.16 nM [^3H]

Adrenergic α2B Receptor = target: T6, Adrenergic α2B Receptor (Homo sapiens, UniProt P18089); experiment: Radioligand binding, [3H] Rauwolscine
T6 construct: expressed in transfected cells; host or cells: CHO-K1 cells
T6 sequence (P18089 1-450): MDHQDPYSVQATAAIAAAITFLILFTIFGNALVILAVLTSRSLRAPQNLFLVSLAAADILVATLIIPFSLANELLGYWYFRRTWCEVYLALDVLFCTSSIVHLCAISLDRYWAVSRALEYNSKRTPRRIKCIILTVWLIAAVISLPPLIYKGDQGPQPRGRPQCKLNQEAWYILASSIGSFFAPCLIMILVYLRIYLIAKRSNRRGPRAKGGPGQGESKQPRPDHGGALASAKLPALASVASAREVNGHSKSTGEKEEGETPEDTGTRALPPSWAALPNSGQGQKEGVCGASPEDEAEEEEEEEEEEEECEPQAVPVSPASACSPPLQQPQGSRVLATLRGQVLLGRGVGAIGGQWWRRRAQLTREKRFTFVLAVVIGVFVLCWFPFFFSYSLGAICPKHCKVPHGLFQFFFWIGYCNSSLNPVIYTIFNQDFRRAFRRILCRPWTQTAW
Procedure: as §1
(b) Adrenergic α2B Receptor:
• Reference: S. Uhlen et al., Eur. J. Pharmacol., 343 (1): 93-1-01 (1998) • Source: Human recombinant CHO-K1 cells • Ligand: 2.5 nM [3H]

Adrenergic α2A Receptor = target: T7, Adrenergic α2A Receptor (Homo sapiens, UniProt P08913); experiment: Radioligand binding, [3H] MK-912
T7 construct: expressed in transfected cells; host or cells: insect Sf9 cells
T7 sequence (P08913 1-465): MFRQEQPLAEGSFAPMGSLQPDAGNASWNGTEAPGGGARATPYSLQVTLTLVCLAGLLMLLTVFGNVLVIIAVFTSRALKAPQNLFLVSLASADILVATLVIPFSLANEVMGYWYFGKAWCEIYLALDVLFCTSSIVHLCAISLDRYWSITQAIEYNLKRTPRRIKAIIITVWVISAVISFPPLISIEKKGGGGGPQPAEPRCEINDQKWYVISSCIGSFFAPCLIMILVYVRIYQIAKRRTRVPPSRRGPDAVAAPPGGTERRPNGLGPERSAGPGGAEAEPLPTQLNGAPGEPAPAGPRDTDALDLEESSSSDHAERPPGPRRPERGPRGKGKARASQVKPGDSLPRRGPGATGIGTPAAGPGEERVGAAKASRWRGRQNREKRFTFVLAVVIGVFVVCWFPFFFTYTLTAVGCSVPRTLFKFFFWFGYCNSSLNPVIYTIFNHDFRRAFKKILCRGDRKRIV
Procedure: as §1
(a) Adrenergic α2A Receptor:
as §2

| SMILES | % inhibition, (c) α2C Receptor (Adrenergic α2C Receptor) [%] | % inhibition, (d) D1 Receptor (Dopamine D1 Receptor) [%] | % inhibition, (i) D4.4 Receptor (Dopamine D4.4 Receptor) [%] | % inhibition, (g) D3 Receptor (Dopamine D3 Receptor) [%] | % inhibition, (e) D2L Receptor (Dopamine D2L Receptor) [%] | % inhibition, (b) α2B Receptor (Adrenergic α2B Receptor) [%] | % inhibition, (a) α2A Receptor (Adrenergic α2A Receptor) [%] |
| --- | --- | --- | --- | --- | --- | --- | --- |
| COc1cc2c(cc1O)[C@@H]1C[C@@H](O)[C@H](CC(C)C)CN1CC2 (single isomer, unassigned) [(+)-10-desmethyl-γ-dihydrotetrabenazine] | −7 | 29 | 33 | 65 | 54 | 21 | 13 |
| COc1cc2c(cc1O)[C@@H]1C[C@@H](O)[C@H](CC(C)C)CN1CC2 (single isomer, unassigned) [(−)-10-desmethyl-γ-dihydrotetrabenazine] | 60 | 96 | 81 | 101 | 98 | 44 | 69 |

From US20100087475A1, “PHARMACEUTICAL COMPOUNDS” (Biovali Laboratories International (Barbados) S.R.L., priority 2008, published 2010)
